Patent US20250163066A1, “PROTACs of MALT1” (TEGID THERAPEUTICS, INC., priority 2022, published 2025)

Target: MALT1 (Homo sapiens (Human), UniProt Q9UDY8)
Assay: MALT1 enzymatic activity inhibition (fluorescence, Ac-LRSR-AMC substrate)
Type: biochemical
Conditions: recombinant MALT1 1.5 ng/μl, Ac-LRSR-AMC 1 μM
Protocol: Compound activity was determined using recombinant MALT1 protein (Creative Biomart, Cat #MALT1-28H) and Ac-LRSR-AMC Substrate in an in vitro enzymatic reaction. The enzymatic assay used to determine activity was a Fluorescence assay using a Microplate Reader ClarioStar Plus. The enzymatic reaction was carried out in 1× Assay Buffer (50 mM HEPES pH 7.2-7.4, 100 mM NaCl, 900 mM Sodium citrate, 10 mM DTT). The compounds were dispensed on a 384-well Diamond Well Plate (Axygen, Cat #P-384-120SQ-C—S) using the Biomek FX liquid handling system at 100× solutions of compounds in DMSO. 2.5×MALT1 mix (final concentration 1.5 ng/μl of MALT1) was prepared in 1× Assay Buffer and 8 μl of mixture per well were added into 384w white Reaction Plates with NBS (Corning, Cat #4513). 8 μl of 1× Assay Buffer were used for negative control. Plates were centrifuged for 1 min at 200 g. Next, the compounds were added to Reaction plates using Biomek station via following steps: 1 μl of 100× compounds (in DMSO) was mixed thoroughly with 19 μl of 1× Assay Buffer, then 4 μl of this mixture were added to Reaction plates with 8 μl of MALT1 mix. Plates were centrifuged for 1 min at 200 g and incubated for 10 minutes at rt. Next, 2.5× Ac-LRSR-AMC mix (final concentration 1 μM of Ac-LRSR-AMC) was prepared in 1× Assay Buffer and 8 μl of mixture per well were added to Reaction Plates using Biomek station. Plates were centrifuged for 1 min at 200 g, then the fluorescence was measured immediately using Microplate Reader. Plates were incubated for 30 minutes at 37° C., then for 30 minutes at rt. The fluorescence was measured after the whole incubation using Microplate Reader. The reaction signal was calculated as the subtraction of the first data set values from the second. The % inhibition was then used to calculate the IC50 values. The results of this assay are shown in the Table A. The values of EC50 shown as a letters A-E, where: A≤0.2 μM; 0.2 μM<B≤0.5 μM; 0.5 μM<C≤1 μM; 1<D≤5 μM; E >5.

Sequence of MALT1 (Q9UDY8 whole entry): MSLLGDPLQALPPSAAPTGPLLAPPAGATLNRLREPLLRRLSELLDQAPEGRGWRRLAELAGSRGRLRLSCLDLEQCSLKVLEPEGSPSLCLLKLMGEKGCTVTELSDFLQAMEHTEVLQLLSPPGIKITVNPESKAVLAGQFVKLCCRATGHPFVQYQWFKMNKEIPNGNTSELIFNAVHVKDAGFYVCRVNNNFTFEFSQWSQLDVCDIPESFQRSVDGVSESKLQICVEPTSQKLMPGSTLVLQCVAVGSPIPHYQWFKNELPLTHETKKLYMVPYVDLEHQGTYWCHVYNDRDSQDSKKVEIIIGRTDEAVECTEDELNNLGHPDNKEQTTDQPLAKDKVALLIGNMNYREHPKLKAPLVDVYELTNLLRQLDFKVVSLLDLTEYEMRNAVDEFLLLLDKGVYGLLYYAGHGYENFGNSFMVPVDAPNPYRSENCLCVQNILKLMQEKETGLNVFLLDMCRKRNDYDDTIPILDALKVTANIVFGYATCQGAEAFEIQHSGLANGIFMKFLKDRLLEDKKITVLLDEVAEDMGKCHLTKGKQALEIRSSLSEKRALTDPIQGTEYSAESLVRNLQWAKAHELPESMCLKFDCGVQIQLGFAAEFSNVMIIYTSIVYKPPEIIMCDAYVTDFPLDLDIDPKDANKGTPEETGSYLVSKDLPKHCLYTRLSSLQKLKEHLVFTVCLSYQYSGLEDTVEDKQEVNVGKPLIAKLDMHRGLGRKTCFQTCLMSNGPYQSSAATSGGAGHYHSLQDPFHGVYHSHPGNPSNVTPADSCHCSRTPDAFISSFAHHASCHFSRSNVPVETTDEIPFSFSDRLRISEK

SMILES | EC50 [µM]
CC(C)c1c(NC(=O)Nc2cnc(-c3noc(CCCCCC(=O)N4CCN(c5ccc6c(c5)CN(C5CCC(=O)NC5=O)C6=O)CC4)n3)c(C(F)(F)F)c2)cnc2ccnn12 (stereo not drawn) [Compound 162, 1-[6-[5-[6-[4-[2-(2,6-dioxo-3-piperidyl)-1-oxo-isoindolin-5-yl]piperazin-1-yl]-6-oxo-hexyl]-1,2,4-oxadiazol-3-yl]-5-(trifluoromethyl)-3-pyridyl]-3-(7-isopropylpyrazolo[1,5-a]pyrimidin-6-yl)urea] | ≤ 0.2
Cc1cc(NC(=O)Nc2cnc3ccnn3c2C2CCCO2)cnc1-c1noc(CCCC(=O)N2CCN(c3ccc4c(c3)CN(C3CCC(=O)NC3=O)C4=O)CC2)n1 (stereo not drawn) [Compound 58, 1-[6-[5-[4-[4-[2-(2,6-dioxo-3-piperidyl)-1-oxo-isoindolin-5-yl]piperazin-1-yl]-4-oxo-butyl]-1,2,4-oxadiazol-3-yl]-5-methyl-3-pyridyl]-3-(7-tetrahydrofuran-2-ylpyrazolo[1,5-a]pyrimidin-6-yl)urea] | ≤ 0.2
O=C1CCC(N2Cc3cc(NC(=O)CCCc4nc(-c5ncc(NC(=O)Nc6cnc7ccnn7c6C6CCCC6)cc5Cl)no4)ccc3C2=O)C(=O)N1 (stereo not drawn) [Compound 80, 4-[3-[3-chloro-5-[(7-cyclopentylpyrazolo[1,5-a]pyrimidin-6-yl)carbamoylamino]-2-pyridyl]-1,2,4-oxadiazol-5-yl]-N-[2-(2,6-dioxo-3-piperidyl)-1-oxo-isoindolin-5-yl]butanamide] | ≤ 0.2
O=C1CCC(N2Cc3cc(N4CCN(CCCCc5nc(-c6ncc(NC(=O)Nc7cnc8c(Cl)cnn8c7C7CCCC7)cc6Cl)no5)CC4)ccc3C2=O)C(=O)N1 (stereo not drawn) [Compound 22, N-(3-Chloro-7-cyclopentylpyrazolo[1,5-a]pyrimidin-6-yl)-N′-{5-chloro-6-[5-(4-{4-[2-(2,6-dioxopiperidin-3-yl)-1-oxo-2,3-dihydro-1H-isoindol-5-yl]piperazin-1-yl}butyl)-1,2,4-oxadiazol-3-yl]pyridin-3-yl}urea] | 1 to 5
O=C1CCC(N2Cc3cc(N4CCN(CCCCCc5nc(-c6ncc(NC(=O)Nc7cnc8ccnn8c7C7CCCCC7)cc6Cl)no5)CC4)ccc3C2=O)C(=O)N1 (stereo not drawn) [Compound 99, 1-[5-chloro-6-[5-[5-[4-[2-(2,6-dioxo-3-piperidyl)-1-oxo-isoindolin-5-yl]piperazin-1-yl]pentyl]-1,2,4-oxadiazol-3-yl]-3-pyridyl]-3-(7-cyclohexylpyrazolo[1,5-a]pyrimidin-6-yl)urea] | ≤ 0.2
CC(C)c1c(NC(=O)Nc2cnc(-c3noc(CCCCC(=O)N4CCN(c5ccc6c(c5)CN(C5CCC(=O)N(C)C5=O)C6=O)CC4)n3)c(Cl)c2)cnc2ccnn12 (stereo not drawn) [Compound 136, 1-[5-chloro-6-[5-[5-[4-[2-(1-methyl-2,6-dioxo-3-piperidyl)-1-oxo-isoindolin-5-yl]piperazin-1-yl]-5-oxo-pentyl]-1,2,4-oxadiazol-3-yl]-3-pyridyl]-3-(7-isopropylpyrazolo[1,5-a]pyrimidin-6-yl)urea] | ≤ 0.2
O=C1CCC(N2Cc3cc(N4CCN(C(=O)CCCCCc5nnc(-c6ccc(NC(=O)Nc7cnc8ccnn8c7C7CCCC7)cn6)s5)CC4)ccc3C2=O)C(=O)N1 (stereo not drawn) [Compound 128, 1-(7-cyclopentylpyrazolo[1,5-a]pyrimidin-6-yl)-3-[6-[5-[6-[4-[2-(2,6-dioxo-3-piperidyl)-1-oxo-isoindolin-5-yl]piperazin-1-yl]-6-oxo-hexyl]-1,3,4-thiadiazol-2-yl]-3-pyridyl]urea] | 1 to 5
Cc1cc(NC(=O)Nc2cnc3ccnn3c2C2CCCCC2)cnc1-c1noc(CCCCCN2CCN(c3ccc4c(c3)CN(C3CCC(=O)NC3=O)C4=O)CC2)n1 (stereo not drawn) [Compound 132, 1-(7-cyclohexylpyrazolo[1,5-a]pyrimidin-6-yl)-3-[6-[5-[5-[4-[2-(2,6-dioxo-3-piperidyl)-1-oxo-isoindolin-5-yl]piperazin-1-yl]pentyl]-1,2,4-oxadiazol-3-yl]-5-methyl-3-pyridyl]urea] | 0.2 to 0.5
Cc1cc(NC(=O)Nc2cnc3ccnn3c2C2CCCC2)cnc1-c1cn(CCCCCCC(=O)N2CCN(c3ccc4c(c3)CN(C3CCC(=O)NC3=O)C4=O)CC2)nn1 (stereo not drawn) [Compound 6, 1-(7-cyclopentylpyrazolo[1,5-a]pyrimidin-6-yl)-3-[6-[1-[7-[4-[2-(2,6-dioxo-3-piperidyl)-1-oxo-isoindolin-5-yl]piperazin-1-yl]-7-oxo-heptyl]triazol-4-yl]-5-methyl-3-pyridyl]urea] | 0.5 to 1
O=C1CCC(N2Cc3cc(N4CCN(CCCCCc5nc(-c6ncc(NC(=O)Nc7cnc8ccnn8c7C7CC7)cc6Cl)no5)CC4)ccc3C2=O)C(=O)N1 (stereo not drawn) [Compound 161, 1-[5-chloro-6-[5-[5-[4-[2-(2,6-dioxo-3-piperidyl)-1-oxo-isoindolin-5-yl]piperazin-1-yl]pentyl]-1,2,4-oxadiazol-3-yl]-3-pyridyl]-3-(7-cyclopropylpyrazolo[1,5-a]pyrimidin-6-yl)urea] | ≤ 0.2
CCCCOP(=O)(OCCCC)OCN1C(=O)CCC(N2Cc3cc(N4CCN(C(=O)CCCCCc5nc(-c6ncc(NC(=O)Nc7cnc8ccnn8c7C7CCCC7)cc6Cl)no5)CC4)ccc3C2=O)C1=O (stereo not drawn) [Compound 103, dibutyl [3-[5-[4-[6-[3-[3-chloro-5-[(7-cyclopentylpyrazolo[1,5-a]pyrimidin-6-yl)carbamoylamino]-2-pyridyl]-1,2,4-oxadiazol-5-yl]hexanoyl]piperazin-1-yl]-1-oxo-isoindolin-2-yl]-2,6-dioxo-1-piperidyl]methyl phosphate] | > 5
Cc1cc2ncc(NC(=O)Nc3cnc(-c4noc(CCCCCCN5CCN(c6ccc7c(c6)CN(C6CCC(=O)NC6=O)C7=O)CC5)n4)c(C)c3)c(C3CCCO3)n2n1 (stereo not drawn) [Compound 73, 1-[6-[5-[6-[4-[2-(2,6-dioxo-3-piperidyl)-1-oxo-isoindolin-5-yl]piperazin-1-yl]hexyl]-1,2,4-oxadiazol-3-yl]-5-methyl-3-pyridyl]-3-(2-methyl-7-tetrahydrofuran-2-yl-pyrazolo[1,5-a]pyrimidin-6-yl)urea] | ≤ 0.2
O=C1CCC(N2Cc3cc(N4CCN(C(=O)CCCCn5cc(NC(=O)Nc6cnc7ccnn7c6C6CCCC6)c(C(F)(F)F)n5)CC4)ccc3C2=O)C(=O)N1 (stereo not drawn) [Compound 151, 1-(7-cyclopentylpyrazolo[1,5-a]pyrimidin-6-yl)-3-[1-[5-[4-[2-(2,6-dioxo-3-piperidyl)-1-oxo-isoindolin-5-yl]piperazin-1-yl]-5-oxo-pentyl]-3-(trifluoromethyl)pyrazol-4-yl]urea] | 1 to 5
O=C1CCC(N2Cc3cc(N4CCN(CCCCCn5cc(NC(=O)Nc6cnc7ccnn7c6C6CCC6)c(C(F)(F)F)n5)CC4)ccc3C2=O)C(=O)N1 (stereo not drawn) [Compound 156, 1-(7-cyclobutylpyrazolo[1,5-a]pyrimidin-6-yl)-3-[1-[5-[4-[2-(2,6-dioxo-3-piperidyl)-1-oxo-isoindolin-5-yl]piperazin-1-yl]pentyl]-3-(trifluoromethyl)pyrazol-4-yl]urea] | > 5
O=C1CCC(N2Cc3cc(N4CCN(C(=O)CCCc5nc(-c6ncc(NC(=O)Nc7cnc8ccnn8c7C7CCCC7)cc6F)no5)CC4)ccc3C2=O)C(=O)N1 (stereo not drawn) [Compound 77, 1-(7-cyclopentylpyrazolo[1,5-a]pyrimidin-6-yl)-3-[6-[5-[4-[4-[2-(2,6-dioxo-3-piperidyl)-1-oxo-isoindolin-5-yl]piperazin-1-yl]-4-oxo-butyl]-1,2,4-oxadiazol-3-yl]-5-fluoro-3-pyridyl]urea] | ≤ 0.2
Cc1c(NC(=O)Nc2cnc(-c3noc(CCCCCC(=O)N4CCN(c5ccc6c(c5)CN(C5CCC(=O)NC5=O)C6=O)CC4)n3)c(Cl)c2)cnc2ccnn12 (stereo not drawn) [Compound 65, 1-[5-chloro-6-[5-[6-[4-[2-(2,6-dioxo-3-piperidyl)-1-oxo-isoindolin-5-yl]piperazin-1-yl]-6-oxo-hexyl]-1,2,4-oxadiazol-3-yl]-3-pyridyl]-3-(7-methylpyrazolo[1,5-a]pyrimidin-6-yl)urea] | 0.2 to 0.5
Cc1cc(NC(=O)Nc2cnc3ccnn3c2C2CCCC2)cnc1-c1noc(CCCCCN2CCN(c3ccc4c(c3)CN(C3CCC(=O)N(C)C3=O)C4=O)CC2)n1 (stereo not drawn) [Compound 64, 1-(7-cyclopentylpyrazolo[1,5-a]pyrimidin-6-yl)-3-[5-methyl-6-[5-[5-[4-[2-(1-methyl-2,6-dioxo-3-piperidyl)-1-oxo-isoindolin-5-yl]piperazin-1-yl]pentyl]-1,2,4-oxadiazol-3-yl]-3-pyridyl]urea] | ≤ 0.2
Cc1cc2ncc(NC(=O)Nc3cnc(-c4noc(CCCCCC(=O)N5CCN(c6ccc7c(c6)CN(C6CCC(=O)NC6=O)C7=O)CC5)n4)c(C)c3)c(C3CCCO3)n2n1 (stereo not drawn) [Compound 67, 1-[6-[5-[6-[4-[2-(2,6-dioxo-3-piperidyl)-1-oxo-isoindolin-5-yl]piperazin-1-yl]-6-oxo-hexyl]-1,2,4-oxadiazol-3-yl]-5-methyl-3-pyridyl]-3-(2-methyl-7-tetrahydrofuran-2-yl-pyrazolo[1,5-a]pyrimidin-6-yl)urea] | ≤ 0.2
